Test results reported in patent US20230123334A1, “AMINO LIPID COMPOUND, PREPARATION METHOD THEREFOR, AND APPLICATION THEREOF” (SHENZHEN SHENXIN BIOTECHNOLOGY CO., LTD., priority 2020, published 2023).

Legend:
HEK293 cells [1] = test: Preliminary screening as DNA vectors, GFP transfection of HEK293 cells; type: cell-based; settings: HEK293 cells; lipid/DOPE liposome with 75 ng plasmid DNA (psin-EGFP-IRES-Puro); number of cells expressing GFP divided by total number of nuclei (Hoechst)
Method in brief: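 HEK293 cells in DMEM/10% FBS transfected with 75 ng EGFP plasmid per well complexed with amino lipid/DOPE liposomes in pH 5.6 sodium acetate. Hoechst nuclear stain added 20-24 h post-transfection, then cells cultured another 20-24 h. Confocal imaging gives GFP-positive cells as % of total nuclei.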

HEK293 cells [2] = test: Preliminary screening as mRNA vectors, EGFP mRNA transfection of HEK293 cells; type: cell-based; settings: HEK293 cells, 96-well plates, EGFP mRNA 50 ng per well; percentage of GFP fluorescent cells relative to total number of cells (Hoechst)
Method in brief: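 HEK293 cells in DMEM plus 10% FBS transfected in 96-well format with 50 ng EGFP mRNA per well; Lipofectamine2000 served as positive control. Read-out is the percentage of GFP-fluorescent cells among total cells, counted by Hoechst nuclear stain.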

| SMILES | Absolute DNA transfection efficiency in HEK293 cells (HEK293 cells [1]) | Absolute mRNA transfection efficiency in HEK293 cells (HEK293 cells [2]) |
| --- | --- | --- |
| CCCCCCCCCCCCNc1nc(NCCCCCCCCC)nc(NCCN2CCN(C)CC2)n1 [Compound N9N12D5] | 0.0% | 3.8% |
| CCCCCCCCCCCCCCCNc1nc(NCCCCCC)nc(NCCN2CCOCC2)n1 [Compound N6N15D2] | 0.0% | 0.1% |
| CCCCCCCCCCCCSc1nc(NCC2CCN(C)CC2)nc(SCCCCCCCCCCC)n1 [Compound S11S12D10] | 4.8% | 10.5% |
| CCCCCCCCCCCCCCCCNc1nc(NCCCCCCCCCCC)nc(NCCCN2CCN(C)CC2)n1 [Compound N11N16D9] | 0.0% | 0.9% |
| CCCCCCCCCCCCCCCCCCNc1nc(NCCCCCCCCCCCCCCC)nc(NCCN2CCN(C)CC2)n1 [Compound N15N18D5] | 0.0% | 0.0% |
| CCCCCCNc1nc(NCCCCCC)nc(NCCCN2CCN(C)CC2)n1 [Compound N6N6D9] | 0.0% | 0.2% |
| CCCCCCCCCCCCCCCCCCSc1nc(NCC2CCN(C)CC2)nc(SCCCCCCCCCCCCCC)n1 [Compound S14S18D10] | 1.7% | 1.5% |
| CCCCCCCCCCCSc1nc(NCCCN2CCN(C)CC2)nc(SCCCCCCCCCCC)n1 [Compound S11S11D9] | 4.3% | 8.0% |
| CCCCCCCCCCCCCCCCNc1nc(NCCCCCCCCCCCCC)nc(NCCN(CC)CC)n1 [Compound N13N16D7] | 1.5% | 0.6% |
| CCCCCCCCCCCCCCCCCCNc1nc(NCCCCCCCCCCCCCCC)nc(NCCN(C)C)n1 [Compound N15N18D1] | 0.0% | 0.0% |
| CCCCCCCCCSc1nc(NCCN2CCOCC2)nc(SCCCCCCCCC)n1 [Compound S9S9D2] | 6.8% | 3.1% |
| CCCCCCCCCCCCCCCNc1nc(NCCCCCCCC)nc(NCCN2CCCC2)n1 [Compound N8N15D3] | 1.5% | 7.6% |
| CCCCCCCNc1nc(NCCCCCC)nc(NCCN(CC)CC)n1 [Compound N6N7D7] | 0.0% | 0.0% |
| CCCCCCCCCCCCCCCCCCNc1nc(NCCCCCCCCCCCCC)nc(NCCN(C)C)n1 [Compound N13N18D1] | 2.7% | 13.8% |
| CCCCCCCCCCCNc1nc(NCCCCCC)nc(NCCN2CCN(C)CC2)n1 [Compound N6N11D5] | 0.1% | 0.5% |
| CCCCCCCCCCCCN(CCCCCCCCCCCC)c1nc(NCCCCCCCCC)nc(NCCN2CCOCC2)n1 [N9^2N12D2] | 0.0% | 1.3% |
| CCCCCCCCCCCCCNc1nc(NCCCCCCC)nc(NCCCN(C)C)n1 [Compound N7N13D6] | 1.6% | 2.3% |
| CCCCCCCCCCCCCCCCCCNc1nc(NCCN(CC)CC)nc(N(CCCCCCCCCCCC)CCCCCCCCCCCC)n1 [N18^2N12D7] | 0.2% | 0.7% |
| CCCCCCCCCCCCCNc1nc(NCCCCCCC)nc(NCCCN2CCOCC2)n1 [Compound N7N13D8] | 0.0% | 0.1% |
| CCCCCCCCCCCNc1nc(NCCCCCCC)nc(NCCCN2CCN(C)CC2)n1 [Compound N7N11D9] | 0.1% | 0.0% |
| CCCCCCCCCCCCCCCCSc1nc(NCCCN(C)C)nc(SCCCCCCCCCCCCCCC)n1 [Compound S15S16D6] | 0.2% | 0.4% |
| CCCCCCCCCCCCCCCCCCSc1nc(NCCN2CCCCC2)nc(SCCCCCCCCC)n1 [Compound S9S18D4] | 5.5% | 0.6% |
| CCCCCCCCCCCCCCCCCCNc1nc(NCCCCCCCCCCCCC)nc(NCCN2CCN(C)CC2)n1 [Compound N13N18D5] | 0.2% | 0.7% |
| CCCCCCCCCCCCCCCSc1nc(NCCN2CCCCC2)nc(SCCCCCCCCCC)n1 [Compound S10S15D4] | 7.5% | 0.7% |

| SMILES | Absolute DNA transfection efficiency in HEK293 cells (HEK293 cells [1]) | Absolute mRNA transfection efficiency in HEK293 cells (HEK293 cells [2]) |
| --- | --- | --- |
| CCCCCCCCCCCCCCCCCCNc1nc(NCCCCCCCCCCCCCCC)nc(NCCN(CC)CC)n1 [Compound N15N18D7] | 3.2% | 8.3% |
| CCCCCCCCCCCCCCCCCCNc1nc(NCCCCCCCCCCCCCCCC)nc(NCCN2CCCC2)n1 [Compound N16N18D3] | 0.4% | 20.8% |
| CCCCCCCCCCCCNc1nc(NCCCCCCCCC)nc(NCCN2CCCC2)n1 [Compound N9N12D3] | 0.6% | 4.3% |
| CCCCCCCCCCCCCCCCCCSc1nc(NCCN(CC)CC)nc(SCCCCCCCCCC)n1 [Compound S10S18D7] | 9.2% | 0.3% |
| CCCCCCCCCCCCCCCCCCNc1nc(NCCCN2CCOCC2)nc(N(CCCCCCCCCCCC)CCCCCCCCCCCC)n1 [N18^2N12D8] | 0.4% | 2.3% |
| CCCCCCCCCCCCCCCCCCSc1nc(NCCN2CCCCC2)nc(SCCCCCCCC)n1 [Compound S8S18D4] | 15.8% | 2.0% |
| CCCCCCCCCCCCCCCCCCNc1nc(NCCCCCCCCCCCC)nc(NCC2CCN(C)CC2)n1 [Compound N12N18D10] | 0.0% | 1.0% |
| CCCCCCCCCCCCCNc1nc(NCCCCCCCC)nc(NCCN2CCCC2)n1 [Compound N8N13D3] | 0.9% | 2.7% |
| CCCCCCCCCCCCCCSc1nc(NCCN2CCN(C)CC2)nc(SCCCCCCCCCC)n1 [Compound S10S14D5] | 15.7% | 12.9% |
| CCCCCCCCCCCCSc1nc(NCCN2CCCCC2)nc(SCCCCCCCCCCC)n1 [Compound S11S12D4] | 5.6% | 0.4% |
| CCCCCCCCCCCCSc1nc(NCCN(CC)CC)nc(SCCCCCCCCCCCC)n1 [Compound S12S12D7] | 3.3% | 1.3% |
| CCCCCCCCCCCCCCCCCCSc1nc(NCCN2CCCC2)nc(SCCCCCCCCCCC)n1 [Compound S11S18D3] | 4.8% | 11.6% |
| CCCCCCCCCCCCCCCNc1nc(NCCCCCC)nc(NCCCN(C)C)n1 [Compound N6N15D6] | 0.3% | 0.3% |
| CCCCCCCCCCCCCCCCSc1nc(NCCN(C)C)nc(SCCCCCCCCCCCCCC)n1 [Compound S14S16D1] | 0.0% | 0.0% |
| CCCCCCCCCCCCCCCCNc1nc(NCCCCCC)nc(NCCN2CCCC2)n1 [Compound N6N16D3] | 0.7% | 2.8% |
| CCCCCCCCCCCCCCCCNc1nc(NCCN2CCCC2)nc(N(CCCCCCCCCCCC)CCCCCCCCCCCC)n1 [N16^2N12D3] | 2.0% | 4.0% |
| CCCCCCCCCCCSc1nc(NCCCN(C)C)nc(SCCCCCCCCCC)n1 [Compound S10S11D6] | 8.2% | 83.8% |
| CCCCCCCCCCCCN(CCCCCCCCCCCC)c1nc(NCCN(C)C)nc(N(CCCCCCCCCCCC)CCCCCCCCCCCC)n1 [2N12^2N12D1] | 0.4% | 0.1% |
| CCCCCCCCCCCSc1nc(NCC2CCN(C)CC2)nc(SCCCCCCCCCC)n1 [Compound S10S11D10] | 13.3% | 93.7% |
| CCCCCCCCCCCCCCSc1nc(NCCCN2CCN(C)CC2)nc(SCCCCCCCC)n1 [Compound S8S14D9] | 16.0% | 13.5% |
| CCCCCCCCCCCCNc1nc(NCCCCCCCC)nc(NCCN2CCCCC2)n1 [Compound N8N12D4] | 0.0% | 0.0% |
| CCCCCCCCNc1nc(NCCCCCCC)nc(NCCCN2CCN(C)CC2)n1 [Compound N7N8D9] | 0.7% | 0.2% |
| CCCCCCCCNc1nc(NCCCCCCC)nc(NCCN2CCOCC2)n1 [Compound N7N8D2] | 0.0% | 0.3% |
